Experimental data published in patent US20110144014A1, “CYTOKINE RECEPTOR MODULATORS AND USES THEREOF” (CENTRE HOSPITALIER UNIVERSITAIRE SAINTE-JUSTINE, priority 2005, published 2011).
Where a SMILES comes first, the peptide text is derived from it. [ ]: non-standard residue; d: D form.

Columns and labels:
[1] = biological target: T1, IL-1R/IL-1RacP (Rattus norvegicus, UniProt Q02955+Q63621); experiment: PGE2 levels in rat blood serum after IL-1β; assay type: in vivo; details: peptide injected directly in the stomach
T1 construct: 300 g Sprague-Dawley rats were anesthetized with isoflurane; from tissue; host or cells: whole animal (Sprague-Dawley rat)
T1 sequence (Q02955 20-576): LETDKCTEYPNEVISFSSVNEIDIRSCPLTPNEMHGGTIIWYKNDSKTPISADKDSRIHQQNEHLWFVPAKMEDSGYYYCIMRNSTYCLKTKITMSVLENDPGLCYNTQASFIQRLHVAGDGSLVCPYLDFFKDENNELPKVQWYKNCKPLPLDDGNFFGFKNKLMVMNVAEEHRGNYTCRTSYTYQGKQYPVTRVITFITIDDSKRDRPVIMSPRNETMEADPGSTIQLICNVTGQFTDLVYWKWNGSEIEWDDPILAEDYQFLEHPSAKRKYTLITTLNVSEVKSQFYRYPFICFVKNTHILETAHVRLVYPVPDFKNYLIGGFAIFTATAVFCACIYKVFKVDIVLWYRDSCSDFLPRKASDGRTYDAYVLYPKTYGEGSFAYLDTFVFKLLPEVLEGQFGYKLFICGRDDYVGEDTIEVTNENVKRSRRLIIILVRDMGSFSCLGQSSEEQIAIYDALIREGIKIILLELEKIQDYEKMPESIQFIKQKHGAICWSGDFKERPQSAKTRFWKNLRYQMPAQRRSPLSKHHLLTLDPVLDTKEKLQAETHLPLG
T1 sequence (Q63621 21-570): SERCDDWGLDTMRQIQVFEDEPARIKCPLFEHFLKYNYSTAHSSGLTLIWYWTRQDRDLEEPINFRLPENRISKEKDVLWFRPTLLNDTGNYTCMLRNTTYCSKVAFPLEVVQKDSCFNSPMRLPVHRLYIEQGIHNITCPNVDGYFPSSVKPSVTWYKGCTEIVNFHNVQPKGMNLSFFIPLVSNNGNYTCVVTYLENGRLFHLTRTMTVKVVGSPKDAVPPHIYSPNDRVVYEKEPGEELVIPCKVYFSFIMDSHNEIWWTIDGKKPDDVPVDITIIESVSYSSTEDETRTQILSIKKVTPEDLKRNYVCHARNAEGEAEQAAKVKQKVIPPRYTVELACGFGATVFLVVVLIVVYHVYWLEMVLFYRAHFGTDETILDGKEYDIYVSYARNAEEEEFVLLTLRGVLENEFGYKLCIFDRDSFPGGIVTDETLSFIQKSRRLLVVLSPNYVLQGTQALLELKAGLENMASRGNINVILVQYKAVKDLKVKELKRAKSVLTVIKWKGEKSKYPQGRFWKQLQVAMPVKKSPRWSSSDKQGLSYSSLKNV
Experimental: Another way of assessing the effect of cytokine receptor subfragments on IL-1R activity in vivo is by measuring PGE2 levels in rat blood serum. Rat blood samples were collected from in vivo experiments (e.g., protocol for IL-1 induced hypotension) and centrifuged at maximum speed for 15 minutes. The serum was then passed through a Waters purification column to isolate the lipidic part. Samples were evaporated and PGE2 quantities were determined with a radioimmuno assay (RIA) using a commercial kit (Cederlane).
The API-101 derivatives, API-101.10 (and others) were also tested to assess whether they could reverse the physiological actions of the natural ligand in vivo by injecting the derivative through the jugular or directly into the stomach (to verify the stability of the peptide through the digestive tract). Sprague-Dawley rats (300 g) were anesthetized with isoflurane (2.5-4%). The natural ligand (IL-1β) or vehicle (saline) was injected through the jugular vein (5 μg/kg). […] Arterial blood pressure and heart rate were continuously monitored (Gould) while temperature and blood gases (Radiometer) were measured for routine analysis as previously described (Li et al., Am. J. Physiol. 273:R1283-R1290, 1997; Hardy et al., Pediatr. Res. 46:375-382, 1999; Najarian et al., Circ. Res. 87:1149-1156, 2000). […]

[2] = biological target: T2, IL-1R (Rattus norvegicus, UniProt Q02955); experiment: Cross-linking and radioligand binding of I125-API-101.10 on thymocytes
T2 construct: Thymocytes freshly isolated from rat thymus; endogenous in cells; host or cells: freshly isolated rat thymocytes
T2 sequence (Q02955 20-576): T1 sequence (Q02955 20-576)
T2 sequence (Q63621 21-570 partner): T1 sequence (Q63621 21-570)
Excerpt: Thymocytes freshly isolated from rat thymus were resuspended at a concentration of 10^7 cell/ml in PBS (phosphate buffered saline) buffer pH 8.0 (reaction buffer) and washed three times with ice-cold reaction buffer. The reaction mixture for each sample contained: 10^6 cells and 10^7 cpm of 125API-101.10. One sample also contained […] of cold API-101.10 peptide. In the negative control HEK-293 cells containing a negligible amount of IL-1R were used. Each sample volume was then raised to 250 μl with reaction buffer. Samples were incubated at room temperature and/or 37° for 45 minutes to allow peptide binding. The non-permeable cross-linker BS3 (Bis(sulfosuccinimidyl)suberate) was then added to a final concentration of 2.5 mM and samples were incubated at 4° C. for 30 minutes to minimize active internalization of BS3 (11.4 Å) (Pierce) (Partis, J. Prot. Chem. 293:263-277, 1983; Cox et al., J. Immunol. 145:1719-1726, 1990; and Knoller et al., J. Biol. Chem. 266:2795-2804, 1991). The reaction was quenched with 20 mM TRIS pH 7.5 for 15 minutes at room temperature. Cells were centrifuged at 4000 rpm for 10 minutes, lysed for 30 minutes on ice with 150 μl of RIPA buffer (50 mM Tris HCl pH7.4; 150 mM NaCl; 1 mM EDTA; 2 mM Na3VO4; 1 mM NaF; 1% NP-40; 0.25% Nadeoxycholate). […] Radioactivity was determined is every cell lysate with a Packard CobraII autogamma counter.

In the case of `CC(C)C[C@@H](NC(=O)[C@@H](CCC(=O)O)NC(=O)[C@H](NC(=O)[C@H](NC(=O)[C@@H](Cc1ccc(O)cc1)NC(=O)[C@H](N)CCCNC(=N)N)[C@H](C)O)C(C)C)C(=O)N[C@H](C)C(N)=O` [API-101.10, RYTVELA] (H-[dR][dY][dT][dV][dE][dL][dA]-NH2; N-terminus and C-terminus assumed), the “prevention of PGE2 synthesis in vivo” value [1] is reported as “Higher inhibition”, the “displacement of radioactive IL-1α” value ([2]; I125-IL-1α 100 pM, 101.10 500 nM) is reported as “unable to displace” and the “displacement of 125I-API-101.10 by non-radioactive peptide” value ([2]; cross-linking, autoradiogram) is reported as “displace almost all”.
